Patent US9663543B2 (priority 2014, dated 2017)

What follows are compounds tested against Human factor D (Homo sapiens (Human), UniProt P00746).
Sequence of Human factor D (P00746 26-253 limits assumed): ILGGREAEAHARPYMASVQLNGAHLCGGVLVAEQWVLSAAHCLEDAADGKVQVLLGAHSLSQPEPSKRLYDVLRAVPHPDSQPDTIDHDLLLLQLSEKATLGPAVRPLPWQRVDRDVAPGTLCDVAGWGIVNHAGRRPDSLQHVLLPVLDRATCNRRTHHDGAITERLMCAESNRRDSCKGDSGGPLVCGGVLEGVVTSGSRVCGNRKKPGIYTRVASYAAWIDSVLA
Format: biochemical
`CCOP(=O)(OCC)c1ccc2c(C(C)=O)cn(CC(=O)N3C[C@H](F)C[C@H]3C(=O)NCc3cccc(Cl)c3F)c2c1` [Compound 1, diethyl 3-acetyl-1-(2-((2S,4R)-2-(3-chloro-2-fluorobenzylcarbamoyl)-4-fluoropyrrolidin-1-yl)-2-oxoethyl)-1H-indol-6-ylphosphonate] showed an IC50 of under 1000 nM.
In the case of `CCOP(=O)(O)c1ccc2c(C(C)=O)cn(CC(=O)N3C[C@H](F)C[C@H]3C(=O)NCc3cccc(Cl)c3F)c2c1` [Compound 2, ethyl hydrogen 3-acetyl-1-(2-((2S,4R)-2-(3-chloro-2-fluorobenzylcarbamoyl)-4-fluoropyrrolidin-1-yl)-2-oxoethyl)-1H-indol-6-ylphosphonate], the IC50 is reported as under 1000 nM.
`CC(=O)c1cn(CC(=O)N2C[C@H](F)C[C@H]2C(=O)NCc2cccc(Cl)c2F)c2cc(P(=O)(O)O)ccc12` [Compound 3, 3-acetyl-1-(2-((2S,4R)-2-(3-chloro-2-fluorobenzylcarbamoyl)-4-fluoropyrrolidin-1-yl)-2-oxoethyl)-1H-indol-6-ylphosphonic acid] showed an IC50 of under 1000 nM.
Work on `CC(=O)c1cn(CC(=O)N2C[C@H](F)C[C@H]2C(=O)NCc2cccc(Cl)c2F)c2cc(P(=O)(OCOC(=O)OC(C)C)OCOC(=O)OC(C)C)ccc12` [Compound 4, ((3-acetyl-1-(2-((2S,4R)-2-(3-chloro-2-fluorobenzylcarbamoyl)-4-fluoropyrrolidin-1-yl)-2-oxoethyl)-1H-indol-6-yl)phosphoryl)bis(oxy)bis (methylene) isopropyl dicarbonate] yielded an IC50 of under 1000 nM.
`CCOP(=O)(OCOC(=O)OC(C)C)c1ccc2c(C(C)=O)cn(CC(=O)N3C[C@H](F)C[C@H]3C(=O)NCc3cccc(Cl)c3F)c2c1` (stereo partly drawn) [Compound 6, ((3-acetyl-1-(2-((2S,4R)-2-(3-chloro-2-fluorobenzylcarbamoyl)-4-fluoropyrrolidin-1-yl)-2-oxoethyl)-1H-indol-6-yl)(ethoxy)phosphoryloxy) methyl isopropyl carbonate] was tested, and the IC50 was under 1000 nM.
For `CC(=O)c1cn(CC(=O)N2[C@@H]3CCC[C@@H]3C[C@H]2C(=O)NCc2cccc(Cl)c2F)c2cc(P(=O)(O)O)ccc12` [Compound 7, 3-acetyl-1-(2-((2S,3aR,6aR)-2-(3-chloro-2-fluorobenzylcarbamoyl)hexa-hydrocyclopenta[b]pyrrol-1(2H)-yl)-2-oxoethyl)-1H-indol-6-ylphosphonic acid], the IC50 was under 1000 nM.
`CCOP(=O)(OCC)c1ccc2c(c1)c(C(C)=O)cn2CC(=O)N1C[C@H](F)C[C@H]1C(=O)NCc1cccc(Cl)c1F` [Compound 8, diethyl 3-acetyl-1-(2-((2S,4R)-2-(3-chloro-2-fluorobenzylcarbamoyl)-4-fluoropyrrolidin-1-yl)-2-oxoethyl)-1H-indol-5-ylphosphonate] showed an IC50 of under 1000 nM.
In the case of `CCOP(=O)(O)c1ccc2c(c1)c(C(C)=O)cn2CC(=O)N1C[C@H](F)C[C@H]1C(=O)NCc1cccc(Cl)c1F` [Compound 9, ethyl hydrogen 3-acetyl-1-(2-((2S,4R)-2-(3-chloro-2-fluorobenzylcarbamoyl)-4-fluoropyrrolidin-1-yl)-2-oxoethyl)-1H-indol-5-ylphosphonate], the IC50 is reported as over 10000 nM.
In the case of `CC(=O)c1cn(CC(=O)N2C[C@H](F)C[C@H]2C(=O)NCc2cccc(Cl)c2F)c2ccc(P(=O)(O)O)cc12` [Compound 10, 3-acetyl-1-(2-((2S,4R)-2-(3-chloro-2-fluorobenzylcarbamoyl)-4-fluoropyrrolidin-1-yl)-2-oxoethyl)-1H-indol-5-ylphosphonic acid], the IC50 is reported as under 1000 nM.
Compound `CCOC(=O)c1nn(CC(=O)N2C[C@H](F)C[C@H]2C(=O)NCc2cccc(Cl)c2F)c2cc(P(=O)(OCC)OCC)ccc12` [Compound 11, ethyl 1-(2-((2S,4R)-2-(3-chloro-2-fluorobenzylcarbamoyl)-4-fluoropyrrolidin-1-yl)-2-oxoethyl)-6-(diethoxyphosphoryl)-1H-indazole-3-carboxylate] has an IC50 of over 10000 nM.
In the case of `CCOP(=O)(OCC)c1ccc2c(C(=O)O)nn(CC(=O)N3C[C@H](F)C[C@H]3C(=O)NCc3cccc(Cl)c3F)c2c1` [Compound 12, 1-(2-((2S,4R)-2-(3-chloro-2-fluorobenzylcarbamoyl)-4-fluoropyrrolidin-1-yl)-2-oxoethyl)-6-(diethoxyphosphoryl)-1H-indazole-3-carboxylic acid], the IC50 is reported as over 10000 nM.
`CCOP(=O)(OCC)c1ccc2c(C(=O)OC)cn(CC(=O)N3C[C@H](F)C[C@H]3C(=O)NCc3cccc(Cl)c3F)c2c1` [Compound 13, methyl 1-(2-((2S,4R)-2-(3-chloro-2-fluorobenzylcarbamoyl)-4-fluoropyrrolidin-1-yl)-2-oxoethyl)-6-(diethoxyphosphoryl)-1H-indole-3-carboxylate] was tested, and the IC50 was under 1000 nM.
`COC(=O)c1cn(CC(=O)N2C[C@H](F)C[C@H]2C(=O)NCc2cccc(Cl)c2F)c2cc(P(=O)(O)O)ccc12` [Compound 14, 1-(2-((2S,4R)-2-(3-chloro-2-fluorobenzylcarbamoyl)-4-fluoropyrrolidin-1-yl)-2-oxoethyl)-3-(methoxycarbonyl)-1H-indol-6-ylphosphonic acid] was tested, and the IC50 was under 1000 nM.
`CCOP(=O)(OCC)c1ccc2c(C(N)=O)cn(CC(=O)N3C[C@H](F)C[C@H]3C(=O)NCc3cccc(Cl)c3F)c2c1` [Compound 15, diethyl 3-carbamoyl-1-(2-((2S,4R)-2-(3-chloro-2-fluorobenzylcarbamoyl)-4-fluoropyrrolidin-1-yl)-2-oxoethyl)-1H-indol-6-ylphosphonate] showed an IC50 of under 1000 nM.
Work on `NC(=O)c1cn(CC(=O)N2C[C@H](F)C[C@H]2C(=O)NCc2cccc(Cl)c2F)c2cc(P(=O)(O)O)ccc12` [Compound 16, 3-carbamoyl-1-(2-((2S,4R)-2-(3-chloro-2-fluorobenzylcarbamoyl)-4-fluoropyrrolidin-1-yl)-2-oxoethyl)-1H-indol-6-ylphosphonic acid] yielded an IC50 of under 1000 nM.
Work on `CCOP(=O)(OCC)c1ccc2c(C(N)=O)nn(CC(=O)N3C[C@H](F)C[C@H]3C(=O)NCc3cccc(Cl)c3F)c2c1` [Compound 17, diethyl 3-carbamoyl-1-(2-((2S,4R)-2-(3-chloro-2-fluorobenzylcarbamoyl)-4-fluoropyrrolidin-1-yl)-2-oxoethyl)-1H-indazol-6-ylphosphonate] yielded an IC50 of under 1000 nM.
`NC(=O)c1nn(CC(=O)N2C[C@H](F)C[C@H]2C(=O)NCc2cccc(Cl)c2F)c2cc(P(=O)(O)O)ccc12` [Compound 18, 3-carbamoyl-1-(2-((2S,4R)-2-(3-chloro-2-fluorobenzylcarbamoyl)-4-fluoropyrrolidin-1-yl)-2-oxoethyl)-1H-indazol-6-ylphosphonic acid] gave an IC50 of under 1000 nM.
With `CC(=O)c1cn(CC(=O)N2C[C@H](F)C[C@H]2C(=O)NCc2cccc(Cl)c2F)c2cc(P(=O)(OCC(F)(F)F)OCC(F)(F)F)ccc12` [Compound 19, bis(2,2,2-trifluoroethyl) 3-acetyl-1-(2-((2S,4R)-2-(3-chloro-2-fluorobenzylcarbamoyl)-4-fluoropyrrolidin-1-yl)-2-oxoethyl)-1H-indol-6-ylphosphonate] the IC50 was under 1000 nM.
Work on `CCCCOP(=O)(OCCCC)c1ccc2c(C(C)=O)cn(CC(=O)N3C[C@H](F)C[C@H]3C(=O)NCc3cccc(Cl)c3F)c2c1` [Compound 20, dibutyl 3-acetyl-1-(2-((2S,4R)-2-(3-chloro-2-fluorobenzylcarbamoyl)-4-fluoropyrrolidin-1-yl)-2-oxoethyl)-1H-indol-6-ylphosphonate] yielded an IC50 of under 1000 nM.
`CCCCOP(=O)(O)c1ccc2c(C(C)=O)cn(CC(=O)N3C[C@H](F)C[C@H]3C(=O)NCc3cccc(Cl)c3F)c2c1` [Compound 21, butyl hydrogen 3-acetyl-1-(2-((2S,4R)-2-(3-chloro-2-fluorobenzylcarbamoyl)-4-fluoropyrrolidin-1-yl)-2-oxoethyl)-1H-indol-6-ylphosphonate] showed an IC50 of under 1000 nM.
`CC(=O)c1cn(CC(=O)N2C[C@H](F)C[C@H]2C(=O)NCc2cccc(Cl)c2F)c2cc(P(=O)(O)OCOC(=O)OC(C)C)ccc12` [Compound 22, ((3-acetyl-1-(2-((2S,4R)-2-(3-chloro-2-fluorobenzylcarbamoyl)-4-fluoropyrrolidin-1-yl)-2-oxoethyl)-1H-indol-6-yl)(hydroxy)phosphoryloxy) methyl isopropyl carbonate] was tested, and the IC50 was under 1000 nM.
`CCOP(=O)(c1ccccc1)c1ccc2c(C(C)=O)cn(CC(=O)N3C[C@H](F)C[C@H]3C(=O)NCc3cccc(Cl)c3F)c2c1` (stereo partly drawn) [Compound 23, ethyl 3-acetyl-1-(2-((2S,4R)-2-(3-chloro-2-fluorobenzylcarbamoyl)-4-fluoropyrrolidin-1-yl)-2-oxoethyl)-1H-indol-6-yl(phenyl)phosphinate] gave an IC50 of under 1000 nM.
Compound `CCOP(=O)(CC)c1ccc2c(C(C)=O)cn(CC(=O)N3C[C@H](F)C[C@H]3C(=O)NCc3cccc(Cl)c3F)c2c1` (stereo partly drawn) [Compound 24, ethyl 3-acetyl-1-(2-((2S,4R)-2-(3-chloro-2-fluorobenzylcarbamoyl)-4-fluoropyrrolidin-1-yl)-2-oxoethyl)-1H-indol-6-yl(ethyl)phosphinate] has an IC50 of under 1000 nM.
`CC(=O)c1cn(CC(=O)N2C[C@H](F)C[C@H]2C(=O)NCc2cccc(Cl)c2F)c2cc(P(=O)(O)c3ccccc3)ccc12` [Compound 25, 3-acetyl-1-(2-((2S,4R)-2-(3-chloro-2-fluorobenzylcarbamoyl)-4-fluoropyrrolidin-1-yl)-2-oxoethyl)-1H-indol-6-yl(phenyl)phosphinic acid] gave an IC50 of under 1000 nM.
`CC(=O)c1cn(CC(=O)N2C[C@H](F)C[C@H]2C(=O)NCc2cccc(Cl)c2F)c2cc(P(=O)(OCOC(=O)C(C)(C)C)OCOC(=O)C(C)(C)C)ccc12` [Compound 26, ((3-acetyl-1-(2-((2S,4R)-2-(3-chloro-2-fluorobenzylcarbamoyl)-4-fluoropyrrolidin-1-yl)-2-oxoethyl)-1H-indol-6-yl)phosphoryl)bis(oxy)bis (methylene) bis(2,2-dimethylpropanoate)] was tested, and the IC50 was under 1000 nM.
`CCP(=O)(O)c1ccc2c(C(C)=O)cn(CC(=O)N3C[C@H](F)C[C@H]3C(=O)NCc3cccc(Cl)c3F)c2c1` [Compound 27, 3-acetyl-1-(2-((2S,4R)-2-(3-chloro-2-fluorobenzylcarbamoyl)-4-fluoropyrrolidin-1-yl)-2-oxoethyl)-1H-indol-6-yl(ethyl)phosphinic acid] gave an IC50 of under 1000 nM.
